Source: patent US20210332083A1, “Netrin-1 Compounds and Compositions Thereof for Treating Pulmonary Hypertension” (The Regents of the University of California, priority 2018, published 2021)
Positions of bridges follow the written chain, without caps; N, C: chain ends. Non-standard residues stand in square brackets, D forms with d. No end group written: not given here. mini‑PEG = diethylene glycol

System: hypoxia induced pulmonary hypertensive mice
Experiment: Hemodynamic analysis (mPAP, RVSP by catheter) in hypoxia induced PH mice
Assay type: in vivo, C57BL/6 mice
Settings: for mPAP (mmHg) / RVSP (mmHg): Mean ± SEM; for % Improvement (reduction in pressure/increase), RVSP / % Improvement (reduction in pressure/increase), mPAP: vs hypoxia w/o treatment; for % Reduction RVSP / % Reduction mPAP: Table 3, (negative control mmHg-netrin-1 compound)/(negative control mmHg); for mean pulmonary arterial pressure (mPAP) / right ventricular systolic pressure (RVSP): mice, 10% oxygen 21 days, 15 ng/day s.c. mini-osmotic pump, mean±SEM; for mean pulmonary arterial pressure (mPAP): hypoxia 40.54±4.473, normoxia 19.41±1.281; for right ventricular systolic pressure (RVSP): hypoxia 41.94±3.287, normoxia 32.20±1.884
Description: All animal experiments were approved by the Institutional Animal Care and Usage Committee at the University of California, Los Angeles (UCLA). […] groups of 9-12 weeks old male C57BL/6 mice (Charles River Laboratories, Wilmington, Mass.) were implanted using mini-osmotic pumps subcutaneously releasing the given netrin-1 compound (netrin-1, V1-9aa, V2-10aa, V3-11aa, V1P, V2P, V3P, V1S, V1T, V1D, V1C) at 15 ng/day, and the mice were housed under room air or 10% oxygen conditions in a normobaric chamber for 21 days. The hypoxic environment was maintained by continuous mixed gas flow (10% oxygen/90% nitrogen gas). The animals were fed and watered ad libitum, and cages were changed twice weekly. After the chamber was closed, the mixed gas was flushed to recover the hypoxic environment as quickly as possible. Animals were maintained at 20° C. with a 12:12-hour light-dark cycle. At the end of the treatment period, animals were anesthetized and hemodynamic analyses were performed by introducing 1.4 F catheter (Millar instruments, Houston, Tex.) into right ventricle and pulmonary artery. The right ventricular systolic blood pressure (RVSP) and the mean pulmonary arterial pressure (mPAP) were recorded using a Power Lab data acquisition system (ADInstruments Inc., CO).
All animal experiments were approved by the Institutional Animal Care and Usage Committee at the University of California, Los Angeles (UCLA). Eleven groups of 9-12 weeks old male C57BL/6 mice (Charles River Laboratories, Wilmington, Mass.) were implanted using mini-osmotic pumps subcutaneously releasing Netrin-1 derived peptides and modified peptides at 15 ng/day (Netrin-1, V1, V2, V3, V1P, V2P, V3P, V1S, V1T, V1D and V1C), and the mice were housed under room air or 10% oxygen conditions in a normobaric chamber for 21 days. The hypoxic environment was maintained by continuous mixed gas flow (10% oxygen/5% CO2 balanced with nitrogen gas). The animals were fed and watered ad libitum, and cages were changed twice weekly. After the chamber was closed, the mixed gas was flushed to recover the hypoxic environment as quickly as possible. Animals were maintained at 20° C. with a 12:12-hour light-dark cycle.
At the end of the treatment period, animals were anesthetized and hemodynamic analysis were performed by introducing 1.4 F catheter (Mikro-Tip® catheter-transducer; Model SPR-671, Millar instruments, Houston, Tex.) into both right and left ventricle and pulmonary artery. The right ventricular systolic blood pressure (RVSP), pulmonary arterial pressure (PAP), left ventricular systolic pressure (LVSP) and aortic pressure were recorded using a Power Lab data acquisition system (ADInstruments Inc., CO).

[1] = Table 2, n = 4-6, hypoxia w/o treatment 40.54 ± 4.473, normal control 19.41 ± 1.281
[2] = Table 2, n = 4-6, hypoxia w/o treatment 41.94 ± 3.281, normal control 32.20 ± 1.884
[3] = Table 2, printed over hypoxia-induced increase 9.74
[4] = Table 2, printed over hypoxia-induced increase 21.13
[5] = Table 1, n = 4-5, hypoxia w/o treatment 38.98 ± 1.747, normal control 32.20 ± 1.884
[6] = Table 1, n = 4-5, hypoxia w/o treatment 39.54 ± 5.341, normal control 19.41 ± 1.281
[7] = Table 1, hypoxia-induced increase 6.78
[8] = Table 1, hypoxia-induced increase 19.39

Substance | mPAP (mmHg) [1] [mmHg] | RVSP (mmHg) [2] [mmHg] | reduction in pressure (of reduction in pressure/increase), RVSP [3] | reduction in pressure (of reduction in pressure/increase), mPAP [4] | % Improvement (reduction in pressure/increase), RVSP (Table 2) [%] | % Improvement (reduction in pressure/increase), mPAP (Table 2) [%] | % Reduction RVSP [%] | % Reduction mPAP [%] | mean pulmonary arterial pressure (mPAP) [mmHg] | right ventricular systolic pressure (RVSP) [mmHg] | RVSP (mmHg) [5] [mmHg] | mPAP (mmHg) [6] [mmHg] | reduction in pressure (of reduction in pressure/increase), RVSP [7] | reduction in pressure (of reduction in pressure/increase), mPAP [8] | % Improvement (reduction in pressure/increase), RVSP (Table 1) [%] | % Improvement (reduction in pressure/increase), mPAP (Table 1) [%] | attenuation (inhibition) of RVSP increase (hypoxia-induced RVSP increase) [%]
(mini-PEG)-CDCRHNTAG ({mini‑PEG}-CDCRHNTAG; not fully specified (bridges); printed as (mini-PEG)-CDCRHNTAG; cysteine pairing not given here) [V1P] | 21.88 ± 3.020 | 30.95 ± 3.867 | > 9.74 | (18.66/21.13) | 100 | 88 | 26 | 46 | 21.88±3.020 | 30.95±3.876 | – | – | – | – | – | – | –
(mini-PEG)-CLNCRHNTAG ({mini‑PEG}-CLNCRHNTAG; cysteine pairing not given here) [V2P] | 27.39 ± 2.973 | 29.95 ± 1.661 | > 9.74 | (13.15/21.13) | 100 | 62 | 29 | 32 | 27.39±2.973 | 29.95±1.661 | – | – | – | – | – | – | –
(mini-PEG)-CPCKDGVTIGIT ({mini‑PEG}-CPCKDGVTIGIT; cysteine pairing not given here) [V3P] | 20.22 ± 1.304 | 29.27 ± 1.986 | > 9.74 | (20.32/21.13) | 100 | 96 | 30 | 50 | 20.22±1.304 | 29.27±1.986 | – | – | – | – | – | – | –
CDCRHNTAG [V1-9aa] (Peptide based on human Netrin-1 sequence) [304-312 aa of human netrin-1] | – | – | – | – | – | – | 19 | 40 | 23.83±5.149 | 31.50±3.321 | 31.50 ± 3.321 | 23.83 ± 5.149 | (>6.78/6.78) | (15.97/19.39) | 100 | 81 | –
CDCRHNTAG [V1C] (disulfide 1-3) | 17.76 ± 1.403 | 26.80 ± 3.051 | > 9.74 | (>21.32/21.13) | 100 | 100 | 36 | 56 | 17.76±1.403 | 26.80±3.051 | – | – | – | – | – | – | –
CLNCRHNTAG (Peptide based on human Netrin-1 sequence) [V2-10aa, 368-377 aa] | – | – | – | – | – | – | 15 | 35 | 25.74±3.788 | 33.10±1.044 | 33.10 ± 1.044 | 25.74 ± 3.788 | (5.88/6.78) | (13.8/19.39) | 87 | 71 | 91
CPCKDGVTGIT (Peptide based on human Netrin-1 sequence) [V3-11aa, 423-433 aa] | – | – | – | – | – | – | 20 | 26 | 29.35±3.635 | 31.23±1.773 | 31.23 ± 1.773 | 29.35 ± 3.635 | (>6.78/6.78) | (10.19/19.39) | 100 | 53 | –
SDCRHNTAG (Peptide based on human Netrin-1 sequence) [V1S] | 16.58 ± 1.608 | 23.62 ± 0.518 | > 9.74 | (>21.32/21.13) | 100 | 100 | 44 | 59 | 16.58±1.608 | 23.62±0.518 | – | – | – | – | – | – | –
TDCRHNTAG (Peptide based on human Netrin-1 sequence) [V1T] | 24.52 ± 2.686 | 29.03 ± 2.960 | > 9.74 | (16.02/21.13) | 100 | 76 | 31 | 40 | 24.52±2.686 | 29.03±2.960 | – | – | – | – | – | – | –
dCDCRHNTAdG ([dC]DCRHNTAG; cysteine pairing not given here) [V1D] | 22.89 ± 3.237 | 29.41 ± 3.876 | > 9.74 | (17.65/21.13) | 100 | 84 | 30 | 44 | 22.89±3.237 | 29.41±3.876 | – | – | – | – | – | – | –
